# Data as given in the supplement of paper PMC6045584.
# ± gives the standard deviation of the averaged measurements.
# How the values were obtained:
# [1] = compound: C=CCn1c(=O)c2cnc(Nc3ccc(N4CCN(C)CC4)cc3)nc2n1-c1cccc(C(C)(C)O)n1 [MK-1775]; assay: surviving fraction relative to DMSO-only wells; higher = less growth inhibition; conditions: exposure time: 5 days
# In short: (§1)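 Surviving fraction is CellTiter-Glo luminescence divided by the median of wells given DMSO only. For this, log-phase tumour cell lines went into 384-well plates at 250–500 cells per well and, 24 hours later, into five days of continuous inhibitor exposure at 0.5, 1, 5, 10, 50, 100, 500 and 1000 nM. Lines were screened three times and retained only if replicate Pearson r >0.7 and median Z' >0.3.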
# [2] = compound: CC/C(=C(\c1ccc(O)cc1)c1ccc(OCCN(C)C)cc1)c1ccccc1 [AFIMOXIFENE]; assay: as above; conditions: exposure time: 5 days
# In short: as §1
Test System,surviving fraction ([1]; 0.5 nM),surviving fraction ([1]; 1 nM),surviving fraction ([1]; 5 nM),surviving fraction ([1]; 10 nM),surviving fraction ([1]; 50 nM),surviving fraction ([1]; 100 nM),surviving fraction ([1]; 500 nM),surviving fraction ([1]; 1000 nM),surviving fraction ([2]; 0.5 nM),surviving fraction ([2]; 1 nM),surviving fraction ([2]; 5 nM),surviving fraction ([2]; 10 nM),surviving fraction ([2]; 50 nM),surviving fraction ([2]; 100 nM),surviving fraction ([2]; 500 nM),surviving fraction ([2]; 1000 nM)
KPD BONE,0.945 ± 0.12,0.91 ± 0.02,0.971 ± 0.029,0.949 ± 0.031,0.954 ± 0.034,0.808 ± 0.039,0.293 ± 0.0046,0.175 ± 0.009,1.03 ± 0.043,1.03 ± 0.022,1.14 ± 0.088,1.07 ± 0.043,1.132 ± 0.011,1.1 ± 0.04,0.976 ± 0.049,0.83 ± 0.035
HELA CERVIX,1.04 ± 0.025,1.07 ± 0.045,1.02 ± 0.064,0.993 ± 0.059,1.15 ± 0.039,1.113 ± 0.0066,0.0972 ± 0.0083,0.0538 ± 0.0035,1.05 ± 0.063,1.02 ± 0.11,1.08 ± 0.061,1 ± 0.055,1.1 ± 0.071,1.11 ± 0.065,1.17 ± 0.058,1.08 ± 0.12
C33A CERVIX,0.908 ± 0.063,0.986 ± 0.15,1 ± 0.053,0.962 ± 0.11,0.895 ± 0.073,0.491 ± 0.025,0.043 ± 0.02,0.0347 ± 0.0064,1.06 ± 0.065,1.07 ± 0.062,1.06 ± 0.15,1.1 ± 0.047,1.14 ± 0.083,1.21 ± 0.029,1.22 ± 0.12,1.34 ± 0.069
HU09 BONE,1.02 ± 0.088,0.916 ± 0.096,1.009 ± 0.01,0.99 ± 0.049,0.831 ± 0.14,0.518 ± 0.045,0.06 ± 0.005,0.0393 ± 0.0049,1 ± 0.069,0.969 ± 0.057,1.02 ± 0.077,1.21 ± 0.1,1.13 ± 0.08,1.04 ± 0.065,0.971 ± 0.083,0.945 ± 0.038
SCC47 HEADNECK,1.01 ± 0.031,1.06 ± 0.025,1.11 ± 0.051,1.11 ± 0.08,0.992 ± 0.053,0.713 ± 0.047,0.238 ± 0.025,0.159 ± 0.014,1.26 ± 0.02,1.2 ± 0.038,1.31 ± 0.11,1.27 ± 0.13,1.31 ± 0.085,1.29 ± 0.12,1.24 ± 0.047,1.2 ± 0.055
SUM149.B1*.S BREAST,1.1 ± 0.035,1.11 ± 0.053,1.1 ± 0.043,1.13 ± 0.017,1.07 ± 0.025,0.892 ± 0.018,0.198 ± 0.01,0.144 ± 0.0048,1.17 ± 0.043,1.1 ± 0.022,1.14 ± 0.065,1.16 ± 0.087,1.18 ± 0.051,1.16 ± 0.099,1.14 ± 0.07,1.2 ± 0.034
LM7 BONE,0.957 ± 0.1,0.947 ± 0.065,0.999 ± 0.12,0.982 ± 0.15,0.751 ± 0.013,0.506 ± 0.032,0.146 ± 0.016,0.0563 ± 0.0015,1.02 ± 0.12,1.07 ± 0.039,1.06 ± 0.063,1.09 ± 0.075,1.15 ± 0.092,1.09 ± 0.039,1.03 ± 0.016,0.914 ± 0.058
OSHN BONE,1.06 ± 0.03,1.06 ± 0.026,1.08 ± 0.04,1.05 ± 0.039,1.08 ± 0.04,1.06 ± 0.046,0.143 ± 0.016,0.0503 ± 0.0025,1.09 ± 0.044,1.08 ± 0.023,1.1 ± 0.035,1.07 ± 0.034,1.12 ± 0.016,1.146 ± 0.0071,1.15 ± 0.016,1.1 ± 0.031
SYO1 SYNOVIAL,1.01 ± 0.014,0.977 ± 0.053,1 ± 0.014,0.9618 ± 0.0076,0.658 ± 0.033,0.317 ± 0.076,0.473 ± 0.11,0.0491 ± 0.0039,0.993 ± 0.023,1.01 ± 0.04,1.04 ± 0.013,1.03 ± 0.072,0.954 ± 0.035,0.982 ± 0.028,0.939 ± 0.023,1.04 ± 0.087
OS25HAL BONE,0.9753 ± 0.0045,0.9973 ± 0.0092,1.03 ± 0.019,1.02 ± 0.025,0.973 ± 0.042,0.554 ± 0.026,0.0463 ± 0.0032,0.0417 ± 0.0025,1.02 ± 0.036,1.04 ± 0.029,1.04 ± 0.014,1.02 ± 0.051,1.18 ± 0.044,1.09 ± 0.021,1.04 ± 0.084,1.04 ± 0.043
SG31 HEADNECK,1.15 ± 0.19,1.03 ± 0.1,0.968 ± 0.097,0.977 ± 0.12,0.979 ± 0.14,0.789 ± 0.1,0.623 ± 0.074,0.649 ± 0.048,1.4 ± 0.15,1.21 ± 0.07,1.18 ± 0.16,1.06 ± 0.095,1.07 ± 0.15,1.09 ± 0.051,1.08 ± 0.099,–
